In patent publication US20230065740A1, “CYCLIN-DEPENDENT KINASE INHIBITORS” (SPV THERAPEUTICS INC., priority 2018, published 2023):

Columns and labels:
CDK6-CYCLIND3 = molecular target: T1, CDK6-CYCLIND3 (Homo sapiens, UniProt Q00534); assay: Microfluidic LabChip kinase inhibition assay, CDK6-CyclinD3; assay type: biochemical; conditions: Table 2; 300 μM ATP, 2 nM enzyme; read-out: CDK6 IC50
T1 construct: purchased Carna

CDK4-CYCLIND1 = CDK4-CYCLIND1 (Homo sapiens, UniProt P11802); assay: Microfluidic LabChip kinase inhibition assay, CDK4-CyclinD1; conditions: CDK4 IC50 (μM), Table 2; 200 μM ATP, 1 nM enzyme
CDK4-CYCLIND1, sequence (P11802 whole entry): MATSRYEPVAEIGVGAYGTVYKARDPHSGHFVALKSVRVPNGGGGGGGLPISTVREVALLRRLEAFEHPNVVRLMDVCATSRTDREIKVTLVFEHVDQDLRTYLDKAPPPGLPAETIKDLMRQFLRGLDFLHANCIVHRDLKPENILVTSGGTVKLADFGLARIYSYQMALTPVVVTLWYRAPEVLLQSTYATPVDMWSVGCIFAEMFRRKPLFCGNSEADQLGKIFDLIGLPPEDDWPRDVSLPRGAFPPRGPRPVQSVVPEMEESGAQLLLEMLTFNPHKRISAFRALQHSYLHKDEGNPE
CDK4-CYCLIND1, sequence (P24385 whole entry partner): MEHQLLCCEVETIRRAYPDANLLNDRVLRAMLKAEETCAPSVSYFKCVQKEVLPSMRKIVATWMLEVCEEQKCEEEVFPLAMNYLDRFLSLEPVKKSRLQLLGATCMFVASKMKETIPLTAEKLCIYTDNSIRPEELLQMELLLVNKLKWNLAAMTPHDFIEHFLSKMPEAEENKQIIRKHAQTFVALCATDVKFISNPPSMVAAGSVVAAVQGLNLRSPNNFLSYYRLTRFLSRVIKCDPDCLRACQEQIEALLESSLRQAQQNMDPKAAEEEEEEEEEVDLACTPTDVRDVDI
Description: Inhibition assays were performed using microfluidic LabChip 300 Drug Discovery System from Caliper Life Sciences. […] The assay has a total volume of 10 μL consisting of 5 μL of enzyme and buffer and 5 μL of substrate and buffer. The test compounds were diluted in 100% dimethylsulfoxide (DMSO) using 3-fold dilution steps. […] Compounds were tested in a single well for each dilution and the final concentration of DMSO was maintained at 1%.
The assay buffer contained 100 mM HEPES, pH 7.5, 0.01% Triton X-100, 0.1% bovine serum albumin (BSA), 5 mM MgCl2; 1 mM dithiothreitol (DTT), 10 μM sodium orthovanadate, and 10 μM β-glycerophosphate.
The assay was conducted by adding 5 μL of enzyme, adenosine triphosphate (ATP) and buffer to an assay plate. A 100 nL aliquot of the diluted compounds were added to the plate. The assay was initiated by the addition of 5 μL of phosphoenolpyruvate substrate (PEP) in buffer. […] The reaction was terminated by the addition of EDTA. The plates were analyzed using a Caliper LabChip 3000.

T1 sequence (Q00534 whole entry): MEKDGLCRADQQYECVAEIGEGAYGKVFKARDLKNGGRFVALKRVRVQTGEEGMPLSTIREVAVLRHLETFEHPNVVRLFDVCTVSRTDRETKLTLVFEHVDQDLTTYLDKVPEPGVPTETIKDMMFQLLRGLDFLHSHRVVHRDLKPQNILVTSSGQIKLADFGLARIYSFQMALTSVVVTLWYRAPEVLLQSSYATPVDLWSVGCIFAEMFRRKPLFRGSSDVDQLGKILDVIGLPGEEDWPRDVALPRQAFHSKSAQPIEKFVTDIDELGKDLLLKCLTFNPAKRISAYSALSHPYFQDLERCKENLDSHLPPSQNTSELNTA
T1 sequence (P30281 whole entry partner): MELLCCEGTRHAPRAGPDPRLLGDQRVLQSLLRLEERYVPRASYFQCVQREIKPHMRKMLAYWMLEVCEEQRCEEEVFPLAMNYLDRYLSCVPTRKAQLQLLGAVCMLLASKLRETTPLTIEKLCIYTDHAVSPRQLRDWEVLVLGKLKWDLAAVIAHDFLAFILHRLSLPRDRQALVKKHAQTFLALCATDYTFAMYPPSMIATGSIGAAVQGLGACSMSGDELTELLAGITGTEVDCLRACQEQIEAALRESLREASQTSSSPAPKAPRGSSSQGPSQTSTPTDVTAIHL

Structure (SMILES)	IC50 (CDK6-CYCLIND3) [µM]	IC50 (CDK4-CYCLIND1) [µM]
CN1CCC2(Cc3cnc(Nc4ccc(N5CCNCC5)cn4)nc3N2C2CCCC2)C1=O (stereo not drawn) [Compound C19, 7′-cyclopentyl-1-methyl-2′-((5-(piperazin-1-yl)pyridin-2-yl)amino)-5′,7′-dihydrospiro[pyrrolidine-3,6′-pyrrolo[2,3-d]pyrimidin]-2-one]	> 30	> 30
CN1CCN(c2ccc(Nc3ncc4c(n3)N(C3CCCC3)C3(CCN(C)C3=O)C4)nc2)CC1 (stereo not drawn) [Compound C20, 7′-cyclopentyl-1-methyl-2′-((5-(4-methylpiperazin-1-yl)pyridin-2-yl)amino)-5′,7′-dihydrospiro[pyrrolidine-3,6′-pyrrolo[2,3-d]pyrimidin]-2-one]	> 30	> 30
O=C1N(Cc2ccccc2)CCC12Cc1cnc(Nc3ccc(N4CCNCC4)cn3)nc1N2C1CCCC1 (stereo not drawn) [Compound C21]	> 30	> 30
CN1CCN(c2ccc(Nc3ncc4c(n3)N(C3CCCC3)C3(CCN(Cc5ccccc5)C3=O)C4)nc2)CC1 (stereo not drawn) [Compound C22, 1-benzyl-7′-cyclopentyl-2′-((5-(4-methylpiperazin-1-yl)pyridin-2-yl)amino)-5′,7′-dihydrospiro[pyrrolidine-3,6′-pyrrolo[2,3-d]pyrimidin]-2-one]	> 30	16.5
CC(C)N1CCN(c2ccc(Nc3ncc4c(n3)N(C3CCCC3)C3(CCN(Cc5ccccc5)C3=O)C4)nc2)CC1 (stereo not drawn) [Compound C23, 1-benzyl-7′-cyclopentyl-2′-((5-(4-isopropylpiperazin-1-yl)pyridin-2-yl)amino)-5′,7′-dihydrospiro[pyrrolidine-3,6′-pyrrolo[2,3-d]pyrimidin]-2-one]	> 30	17.7
CN1CCN(c2ccc(Nc3ncc4c(n3)N(C3CCCC3)C3(CCN(Cc5ccccc5)C3=O)C4)cc2)CC1 (stereo not drawn) [Compound C24, 1-benzyl-7′-cyclopentyl-2′-((4-(4-methylpiperazin-1-yl)phenyl)amino)-5′,7′-dihydrospiro[pyrrolidine-3,6′-pyrrolo[2,3-d]pyrimidin]-2-one]	> 30	12.3
CN1CCCC2(Cc3cnc(Nc4ccc(N5CCNCC5)cn4)nc3N2C2CCCC2)C1=O (stereo not drawn) [Compound C25, 7′-cyclopentyl-1-methyl-2′-((5-(piperazin-1-yl)pyridin-2-yl)amino)-5′,7′-dihydrospiro[piperidine-3,6′-pyrrolo[2,3-d]pyrimidin]-2-one]	> 30	> 30
CN1CCN(c2ccc(Nc3ncc4c(n3)N(C3CCCC3)C3(CCCN(C)C3=O)C4)nc2)CC1 (stereo not drawn) [Compound C26, 7′-cyclopentyl-1-methyl-2′-((5-(4-methylpiperazin-1-yl)pyridin-2-yl)amino)-5′,7′-dihydrospiro[piperidine-3,6′-pyrrolo[2,3-d]pyrimidin]-2-one]	> 30	> 30
O=C1N(Cc2ccccc2)CCCC12Cc1cnc(Nc3ccc(N4CCNCC4)cn3)nc1N2C1CCCC1 (stereo not drawn) [Compound C27, 1-benzyl-7′-cyclopentyl-2′-((5-(piperazin-1-yl)pyridin-2-yl)amino)-5′,7′-dihydrospiro[piperidine-3,6′-pyrrolo[2,3-d]pyrimidin]-2-one]	> 30	> 30
CN1CCN(c2ccc(Nc3ncc4c(n3)N(C3CCCC3)C3(CCCN(Cc5ccccc5)C3=O)C4)nc2)CC1 (stereo not drawn) [Compound C28, 1-benzyl-7′-cyclopentyl-2′-((5-(4-methylpiperazin-1-yl)pyridin-2-yl)amino)-5′,7′-dihydrospiro[piperidine-3,6′-pyrrolo[2,3-d]pyrimidin]-2-one]	> 30	> 30
COc1ccc(CN2CCC3(Cc4cnc(Nc5ccc(N6CCNCC6)cn5)nc4N3C3CCCC3)C2=O)cc1 (stereo not drawn) [Compound C29, 7′-cyclopentyl-1-(4-methoxybenzyl)-2′-((5-(piperazin-1-yl)pyridin-2-yl)amino)-5′,7′-dihydrospiro[pyrrolidine-3,6′-pyrrolo[2,3-d]pyrimidin]-2-one]	> 30	7.78
COc1ccc(CN2CCC3(Cc4cnc(Nc5ccc(N6CCN(C)CC6)cn5)nc4N3C3CCCC3)C2=O)cc1 (stereo not drawn) [Compound C30, 7′-cyclopentyl-1-(4-methoxybenzyl)-2′-((5-(4-methylpiperazin-1-yl)pyridin-2-yl)amino)-5′,7′-dihydrospiro[pyrrolidine-3,6′-pyrrolo[2,3-d]pyrimidin]-2-one]	> 30	8.21
COc1ccc(CN2CCC3(Cc4cnc(Nc5ccc(N6CCN(C(C)C)CC6)cn5)nc4N3C3CCCC3)C2=O)cc1 (stereo not drawn) [Compound C31, 7′-cyclopentyl-2′-((5-(4-isopropylpiperazin-1-yl)pyridin-2-yl)amino)-1-(4-methoxybenzyl)-5′,7′-dihydrospiro[pyrrolidine-3,6′-pyrrolo[2,3-d]pyrimidin]-2-one]	> 30	7.28
COc1ccc(CN2CCC3(Cc4cnc(Nc5ccc(OCCN(C)C)cn5)nc4N3C3CCCC3)C2=O)cc1 (stereo not drawn) [Compound C32, 7′-cyclopentyl-2′-((5-(2-(dimethylamino)ethoxy)pyridin-2-yl)amino)-1-(4-methoxybenzyl)-5′,7′-dihydrospiro[pyrrolidine-3,6′-pyrrolo[2,3-d]pyrimidin]-2-one]	> 30	10.5
O=C1NCCC12Cc1cnc(Nc3ccc(N4CCNCC4)cn3)nc1N2C1CCCC1 (stereo not drawn) [Compound C33, 7′-cyclopentyl-2′-((5-(piperazin-1-yl)pyridin-2-yl)amino)-5′,7′-dihydrospiro[pyrrolidine-3,6′-pyrrolo[2,3-d]pyrimidin]-2-one]	2.08	0.694
CN1CCN(c2ccc(Nc3ncc4c(n3)N(C3CCCC3)C3(CCNC3=O)C4)nc2)CC1 (stereo not drawn) [Compound C34, 7′-cyclopentyl-2′-((5-(4-methylpiperazin-1-yl)pyridin-2-yl)amino)-5′,7′-dihydrospiro[pyrrolidine-3,6′-pyrrolo[2,3-d]pyrimidin]-2-one]	3.7	1.16
O=C1NCCCC12Cc1cnc(Nc3ccc(N4CCNCC4)cn3)nc1N2C1CCCC1 (stereo not drawn) [Compound C35, 7′-cyclopentyl-2′-((5-(piperazin-1-yl)pyridin-2-yl)amino)-5′,7′-dihydrospiro[piperidine-3,6′-pyrrolo[2,3-d]pyrimidin]-2-one]	> 30	19.6
CN1CCN(c2ccc(Nc3ncc4c(n3)N(C3CCCC3)C3(CCCNC3=O)C4)nc2)CC1 (stereo not drawn) [Compound C36, 7′-cyclopentyl-2′-((5-(4-methylpiperazin-1-yl)pyridin-2-yl)amino)-5′,7′-dihydrospiro[piperidine-3,6′-pyrrolo[2,3-d]pyrimidin]-2-one]	> 30	29.3
CC(C)N1CCN(c2ccc(Nc3ncc4c(n3)N(C3CCCC3)C3(CCCNC3=O)C4)nc2)CC1 (stereo not drawn) [Compound C37, 7′-cyclopentyl-2′-((5-(4-isopropylpiperazin-1-yl)pyridin-2-yl)amino)-5′,7′-dihydrospiro[piperidine-3,6′-pyrrolo[2,3-d]pyrimidin]-2-one]	> 30	> 30
CC(C)N1CCN(c2ccc(Nc3ncc4c(n3)N(C3CCCC3)C3(CCNC3=O)C4)nc2)CC1 (stereo not drawn) [Compound C38, 7′-cyclopentyl-2′-((5-(4-isopropylpiperazin-1-yl)pyridin-2-yl)amino)-5′,7′-dihydrospiro[pyrrolidine-3,6′-pyrrolo[2,3-d]pyrimidin]-2-one]	2.99	0.631
CN1CCN(c2ccc(Nc3ncc4c(n3)N(C3CCCC3)C3(CCN(Cc5ccccc5)C3=O)C4)cc2F)CC1 (stereo not drawn) [Compound C39, 1-benzyl-7′-cyclopentyl-2′-((3-fluoro-4-(4-methylpiperazin-1-yl)phenyl)amino)-5′,7′-dihydrospiro[pyrrolidine-3,6′-pyrrolo[2,3-d]pyrimidin]-2-one]	2.55	0.53
CN1CCN(c2ccc(Nc3ncc4c(n3)N(C3CCCC3)C3(CCCN(Cc5ccccc5)C3=O)C4)cc2F)CC1 (stereo not drawn) [Compound C40, 1-benzyl-7′-cyclopentyl-2′-((3-fluoro-4-(4-methylpiperazin-1-yl)phenyl)amino)-5′,7′-dihydrospiro[piperidine-3,6′-pyrrolo[2,3-d]pyrimidin]-2-one]	10.7	2.96
CN1CCN(c2ccc(Nc3ncc4c(n3)N(C3CCCC3)C3(CCN(Cc5ccccc5)C3=O)C4)c(F)c2)CC1 (stereo not drawn) [Compound C41, 1-benzyl-7′-cyclopentyl-2′-((2-fluoro-4-(4-methylpiperazin-1-yl)phenyl)amino)-5′,7′-dihydrospiro[pyrrolidine-3,6′-pyrrolo[2,3-d]pyrimidin]-2-one]	12.8	5.98
CN1CCN(c2ccc(Nc3ncc4c(n3)N(C3CCCC3)C3(CCCN(Cc5ccccc5)C3=O)C4)c(F)c2)CC1 (stereo not drawn) [Compound C42, 1-benzyl-7′-cyclopentyl-2′-((2-fluoro-4-(4-methylpiperazin-1-yl)phenyl)amino)-5′,7′-dihydrospiro[piperidine-3,6′-pyrrolo[2,3-d]pyrimidin]-2-one]	12.1	4.46
O=C1NCCC12Cc1cnc(Nc3ccc(N4CCNCC4)cc3)nc1N2C1CCCC1 (stereo not drawn) [Compound C43, 7′-cyclopentyl-2′-((4-(piperazin-1-yl)phenyl)amino)-5′,7′-dihydrospiro[pyrrolidine-3,6′-pyrrolo[2,3-d]pyrimidin]-2-one]	0.423	0.0633
O=C1NCCCC12Cc1cnc(Nc3cc(C(F)(F)F)c(N4CCNCC4)cn3)nc1N2C1CCCC1 (stereo not drawn) [Compound C44, 7′-cyclopentyl-2′-((5-(piperazin-1-yl)-4-(trifluoromethyl)pyridin-2-yl)amino)-5′,7′-dihydrospiro[piperidine-3,6′-pyrrolo[2,3-d]pyrimidin]-2-one]	> 30	> 30
CN1CCN(c2ccc(Nc3ncc4c(n3)N(C3CCCC3)C3(CCNC3=O)C4)cc2)CC1 (stereo not drawn) [Compound C45, 7′-cyclopentyl-2′-((4-(4-methylpiperazin-1-yl)phenyl)amino)-5′,7′-dihydrospiro[pyrrolidine-3,6′-pyrrolo[2,3-d]pyrimidin]-2-one]	0.574	0.105
